Data published in patent publication US12109222B2, “Methods and compositions for treating mucositis” (Tosk, Inc., priority 2018, dated 2024).
“Also recorded” adds a separate entry of the source.

Key:
5-FU induced weight loss = assay: Protection from 5-FU induced weight loss by uridine alone or uridine plus TK-90; assay type: in vivo, CD-1 mice
Description: Weight loss is one of the cardinal features of mucositis. […] Controls include PBS alone at times mimicking the time for 5-FU and combined uridine and TK-90 treatments. There were n=6 animals in all groups.

plasma citrulline = assay: Plasma citrulline after 5-FU (LC/MS/MS-Isotope assay), surrogate marker for mucositis; assay type: in vivo, C57BL/6 female mice; settings: Day 3
Experimental: The chemotherapeutic challenge was diminished plasma citrulline by 5-FU treatment. The aim of this study was to explore whether a uridine phosphorylase inhibitor could prevent lowered plasma citrulline induced by 5-FU.
TK-90 solution was prepared at a concentration of 500 mg/mL in sterile PBS. Eight animals were used for Groups 1,2 and 3.
Osmotic pumps were placed inside the subcutaneous tunnel. Incision was sealed with Vetbond tissue adhesive and wound clips.
Blood collections were done to animals anesthetized with ketamine (ip 100 mg/kg). Whole blood (˜0.8 mL) was drawn through the retro-orbital sinus using a heparin coated micro-hematocrit tube and collected into a heparin microtainer tube. Blood samples were transferred into fresh 1.5 mL microcentrifuge tubes and centrifuged for 5 minutes at 10,000×g using an Eppendorf Minispin Plus stored in a 4° C. refrigerator. Following collection of the plasma samples, the animals were sacrificed on Day 3 by cervical dislocation and properly disposed. […]
Thawed plasma samples from the study were analyzed for citrulline using a published LC/MS/MS-Isotope assay. (Jones et al., Development and validation of a LC-MS/MS assay for quantitation of plasma citrulline for application to animal models of the acute radiation syndrome across multiple species,” Anal Bioanal Chem. (2014) 406(19):4663-75).

[1] = patients who receive 5-FU for their disease; cited from earlier work
[2] = tested on: panel of cytokines and related biochemicals; assay: Plasma cytokine changes induced by 5-FU, multiplex ELISA on plasma of Experiment III; assay type: in vivo, C57BL/6 female mice; settings: Day 3; 200 mg/kg 5-FU ip plus 6000 mg/kg TK-90 osmotic pump over 24 hours; vs 5-FU alone
Experimental: The chemotherapeutic challenge was cytokine changes induced by 5-FU treatment.
Plasma samples from Experiment III were analyzed for a panel of cytokines and related biochemicals by multiplex ELISA. […] IL-1B, TNF-α, and IL-6 are pro-inflammatory cytokines known to be elevated with mucositis. (Logan et al., “The role of pro-inflammatory cytokines in cancer treatment-induced alimentary tract mucositis: pathobiology, animal models and cytotoxic drugs,” Cancer Treat Rev. (2007) 33(5):448-60; Ong et al., “Pro-inflammatory cytokines play a key role in the development of radiotherapy-induced gastrointestinal mucositis,” Radiat Oncol. (2010) (16) 5:22). TK-90 reverses elevation of all three of these cytokines (FIGS. 5, 6 and 7). IL-2 is a pleiotropic cytokine that drives growth and activation of inflammatory cells such as T-cells, NK cells, etc. IL-9 and IL-15 signal through IL-2. TK-90 reverse the 5-FU induced elevation of all three of these cytokines (FIGS. 8, 9, and 10). IL-12 is a cytokine linked to generation of an immune response. Another cytokine associated with generation of an immune response is IL-5. TK-90 reverse the 5-FU induced elevation of IL-12 and IL5 (FIGS. 11, 12 and 13). IL-10 is a cytokine that plays a central role in limiting host immune response. TK-90 reverses the elevation of IL-10 induced by the 5-FU treatment possibly allowing an immune response to proceed to potentially clear damaged tissue (FIG. 14). GM-CSF and M-CSF both stimulate cell mediators of inflammation. TK-90 reverse the 5-FU induced elevation of both GM-CSF and […] (FIGS. 15 and 16). MIP-2, and KC are chemokines that function much like GM-CSF, and M-CSF to stimulate cell mediators of inflammation TK-90 reverse the 5-FU induced elevation of the chemokines (FIGS. 17 and 18). 5-FU decreases eotaxin, a chemokine that recruits immune-related mediators like eosinophils into inflammatory sites (FIG. 19). TK-90 reverses this decrease.

[3] = Side effects of TK-90 (clinical trials); settings: in vivo
uridine = assay: Systemic uridine after administration of TK-90; assay type: in vivo
[4] = tested on: weight loss induced by 5-FU; settings: 400 mg/kg 5-FU ip Day 0 plus 5333 mg/kg sc TK-90 by osmotic pump over 24 hours; compared to 5-FU alone
Experimental: The chemotherapeutic challenge was weight loss induced by 5-FU (FIG. 2). […] The aim of this study was to explore whether 5-FU combined with a uridine phosphorylase inhibitor provides protection from weight loss, a principal toxicity of 5-FU.
Groups of CD-1 female mice entrained to light:dark (12:12 hours), and given food and water ad libitum, were used for this experiment. The mean weight of the mice at the start of the experiment was approximately 20 g. Control mice were injected ip with sterile PBS, the vehicle control (Group 1). Group 2 and Group 3 mice were injected, ip, with 400 mg/kg 5-FU (Sigma) dissolved in PBS. A 24-hour osmotic pump (ALZET® micro-osmotic pump, Alza Co) was implanted into Group 3 animals. The pumps were loaded with 200 μL (2001D osmotic pump) of a 500 mg/mL solution of TK-90 (FIG. 2) in PBS. The TK-90 dose over the 24-hour infusion was 5333 mg/kg. The four animals were used for Group 1 and 8 animals were used for Groups 2 and 3.
For the implantation of the osmotic pump, animals were anesthetized with 100 mg/kg ketamine prior to pump implantation. […]
Animals were sacrificed on Day 5 by cervical dislocation and properly disposed. Animal weights were recorded daily for 6 days and the percent difference between Day 0 and Day 5 at termination was calculated.

[5] = man and animals; cited from earlier work
[6] = cited from earlier work

O=c1[nH]cc(F)c(=O)[nH]1 [Compound 5-FU, 5-flurouracil]
percent change in weight Day 5 versus Day 0 (5-FU induced weight loss; 80 mg/kg 5-FU qdx5 ip alone, compared to PBS vehicle control): robust weight loss
plasma citrulline concentration (plasma citrulline; 200 mg/kg 5-FU ip alone, compared to PBS vehicle control): significant reduction in citrulline
patients who develop mucositis [1]: Approximately 80%

Cc1cn2c(nc1=O)O[C@H]1[C@H](O)[C@@H](CO)O[C@H]12 [TK-90]
percent change in weight Day 5 versus Day 0 (5-FU induced weight loss; 80 mg/kg 5-FU qdx5 ip with 750 mg/kg uridine and 120 mg/kg TK-90 bid, compared to 5-FU alone): protected from the weight loss
plasma citrulline concentration (plasma citrulline; 200 mg/kg 5-FU ip plus 6000 mg/kg TK-90 by osmotic pump over 24 hours starting 4 hours post 5-FU, compared to 5-FU alone): reverses the decrease in plasma citrulline; also recorded: robust, statistically significant rebound in plasma citrulline
plasma GM-CSF [2]: highly significantly different; also recorded: reverses the increase in plasma GM-CSF
plasma IL-1β [2]: reverses the increase in plasma IL-1β
plasma IL-2 [2]: reverses the increase in plasma IL-2
plasma IL-6 [2]: reverses the increase in plasma IL-6
plasma IL-9 [2]: highly significantly different; also recorded: reverses the increase in plasma IL-9
plasma IL-10 [2]: highly significantly different; also recorded: reverses the increase in plasma IL-10
plasma IL-12 (P40) [2]: highly significantly different; also recorded: reverses the increase in plasma IL-12 (P40)
plasma IL-12 (P70) [2]: highly significantly different; also recorded: reverses the increase in plasma IL-12 (P70)
plasma IL-15 [2]: highly significantly different; also recorded: reverses the increase in plasma IL-15
plasma KC (keratinocytes-derived chemokine) [2]: significantly different; also recorded: reverses the increase in plasma KC
plasma M-CSF [2]: reverses the increase in plasma M-CSF
plasma MIP-2 [2]: reverses the increase in plasma MIP-2
plasma TNF-α [2]: reverses the increase in plasma TNF-α
plasma eotaxin [2]: reverses the decrease in plasma eotaxin
side effects [3]: no known side effects
systemic uridine (uridine): increases systemic uridine
percent weight change on Day 5 versus Day 0 [4]: protected from the weight loss

O=c1ccn([C@@H]2O[C@H](CO)[C@@H](O)[C@H]2O)c(=O)[nH]1 [uridine]
percent change in weight Day 5 versus Day 0 (5-FU induced weight loss; 80 mg/kg 5-FU qdx5 ip with 750 mg/kg uridine bid, compared to 5-FU alone): statistically significant but much less
half-life of administered uridine [5]: ~3 min
toxicity of continuous infusions of high-dose uridine ([6]; continuous infusion): high fever, cellulitis, and superior vena cava syndrome
toxicity of orally administered uridine ([6]; oral, high-dose, clinical studies): considerable GI dysfunction; also recorded: severe patient diarrhea, phlebitis and pyrogenic reactions
